Laboratory results published in the NIST ThermoML archive (doi:10.1021/je301301j).

Assay: molar heat capacity at constant pressure; xn = mol fraction of the nth substance listed
Details: Liquid, Flow calorimetry

C=CCCCC [hex-1-ene] + CCCCO
molar heat capacity at constant pressure [J/K/mol]
Details	x2 = 0	x2 = 0.1001	x2 = 0.2	x2 = 0.3002	x2 = 0.3999	x2 = 0.5018	x2 = 0.5997	x2 = 0.7002	x2 = 0.7999	x2 = 0.9
293.15 K, 100 kPa	179.2	190.4	191.6	192.1	188.5	187.6	184.9	182.6	178.7	176.2
293.15 K, 5000 kPa	174.9	187.5	188.7	189	186.7	185.6	183.1	180	177.5	175.7
293.15 K, 10000 kPa	172.7	184.7	186.3	186.4	184	183.6	180.6	178.7	175.1	174
293.15 K, 15000 kPa	169.9	182.6	183.1	185.1	182.5	182.1	178.5	177.1	173.8	172.1
293.15 K, 20000 kPa	168.1	178.4	179.9	182.8	180.1	179.8	176.1	175.8	172.4	170.7
293.15 K, 25000 kPa	165.7	176.7	178	180.1	178.8	178	174.8	173.5	170.7	169.3
313.15 K, 100 kPa	188.8	204.1	208	209.8	210.3	205.3	203	200.2	198.3	193.4
313.15 K, 5000 kPa	185.9	199.9	204.8	206.6	206.5	202.6	200.6	197.6	195.5	192.5
313.15 K, 10000 kPa	183.1	196.1	201.3	203.2	203.8	199.9	197.8	195.2	193.1	190.4
313.15 K, 15000 kPa	181.6	193.2	198.7	200.9	201.5	197.5	195.7	194	191.9	188
313.15 K, 20000 kPa	179.6	191	196.2	198.2	199.5	194.1	193	192	190.4	186.5
313.15 K, 25000 kPa	177.2	188.1	193.4	194.5	197	192.9	191.4	189.4	188.2	185
